What follows are molecules tested on helical strips of pulmonary artery of guinea pigs (assay: calcium-antagonistic action: inhibition of CaCl2-induced contraction of potassium-depolarised helical strips of pulmonary artery). Settings: Cavia porcellus; guinea pig pulmonary artery strips, calcium-free Tyrode's solution, 40 mmol potassium, 0.5 mmol CaCl2; mean value from 4 to 6 strips; read-out: IC50 (concentration of the test substance which inhibits contraction by 50%).
Assay type: cell-based
Experimental: This entailed helical strips of pulmonary artery of guinea pigs being equilibrated in calcium-free Tyrode's solution and depolarised with 40 mmol of potassium. Addition of 0.5 mmol of CaCl2 then initiates contraction. The relaxant action of the test substance is determined by cumulative addition of concentrations increasing in steps of 1/2 log 10.

| IC50 | Molecule |
| --- | --- |
| 0.15 nM | CC1=C(C(=O)OCC(C)C)C(c2cccc([N+](=O)[O-])c2)C(c2nnco2)=C(C)N1 (stereo not shown) [Example 1z, Isobutyl 1,4-dihydro-2,6-dimethyl-4-(3-nitrophenyl)-5-(1,3,4-oxadiazol-2-yl)pyridine-3-carboxylate] |
| 0.4 nM | COC(=O)C1=C(C)NC(C)=C(c2nnco2)C1c1cccc(Cl)c1Cl (stereo not shown) [Example 2b, Methyl 1,4-dihydro-2,6-dimethyl-4-(2,3-dichlorophenyl)-5-(1,3,4-oxadiazol-2-yl)pyridine-3-carboxylate] |
| 1.6 nM | COC(=O)C1=C(C)NC(C)=C(c2nnc(C)o2)C1c1cccc(Cl)c1Cl (stereo not shown) [Example 2e, Methyl 1,4-dihydro-2,6-dimethyl-4-(2,3-dichlorophenyl)-5-(5-methyl-1,3,4-oxadiazol-2-yl)pyridine-3-carboxylate] |
| 0.09 nM | CC1=C(C(=O)OC(C)C)C(c2cccc([N+](=O)[O-])c2)C(c2nnco2)=C(C)N1 (stereo not shown) [Example 2n, Isopropyl 1,4-dihydro-2,6-dimethyl-4-(3-nitrophenyl)-5-(1,3,4-oxadiazol-2-yl)pyridine-3-carboxylate] |
| 0.3 nM | COCCOC(=O)C1=C(C)NC(C)=C(c2nnco2)C1c1ccccc1[N+](=O)[O-] (stereo not shown) [Example 2o, 2-Methoxyethyl 1,4-dihydro-2,6-dimethyl-4-(2-nitrophenyl)-5-(1,3,4-oxadiazol-2-yl)pyridine-3-carboxylate] |
| 0.5 nM | COC(=O)C1=C(C)NC(C)=C(c2nc(Cc3ccccc3)no2)C1c1cccc([N+](=O)[O-])c1 (stereo not shown) [Example 2r, Methyl 1,4-dihydro-2,6-dimethyl-4-(3-nitrophenyl)-5-(3-benzyl-1,2,4-oxadiazol-5-yl)pyridine-3-carboxylate] |
| 0.7 nM | COC(=O)C1=C(C)NC(C)=C(c2nc(Cc3ccccc3)no2)C1c1cccc(Cl)c1Cl (stereo not shown) [Example 2s, Methyl 1,4-dihydro-2,6-dimethyl-4-(2,3-dichlorophenyl)-5-(3-benzyl-1,2,4-oxadiazol-5-yl)pyridine-3-carboxylate] |
| 1 nM | COC(=O)C1=C(C)NC(C)=C(c2nc(Cc3ccccc3)no2)C1c1ccccc1[N+](=O)[O-] (stereo not shown) [Example 2t, Methyl 1,4-dihydro-2,6-dimethyl-4-(2-nitrophenyl)-5-(3-benzyl-1,2,4-oxadiazol-5-yl)pyridine-3-carboxylate] |
| 0.7 nM | COCCOC(=O)C1=C(C)NC(C)=C(c2nc(Cc3ccccc3)no2)C1c1cccc([N+](=O)[O-])c1 (stereo not shown) [Example 2v, 2-Methoxyethyl 1,4-dihydro-2,6-dimethyl-4-(3-nitrophenyl)-5-(3-benzyl-1,2,4-oxadiazol-5-yl)pyridine-3-carboxylate] |
| 2.5 nM | COC(=O)C1=C(C)NC(C)=C(c2nc(Cc3ccccc3)no2)C1c1ccccc1Cl (stereo not shown) [Example 2w, Methyl 1,4-dihydro-2,6-dimethyl-4-(2-chlorophenyl)-5-(3-benzyl-1,2,4-oxadiazol-5-yl)pyridine-3-carboxylate] |
| 1.5 nM | CC1=C(C(=O)OCCOC(C)C)C(c2cccc(Cl)c2Cl)C(c2nnc(C)o2)=C(C)N1 (stereo not shown) [Example 2z1, 2-Isopropoxyethyl 1,4-dihydro-2,6-dimethyl-4-(2,3-dichlorophenyl)-5-(2-methyl-1,3,4-oxadiazol-5-yl)pyridine-3-carboxylate] |
| 0.2 nM | CC1=C(C(=O)OC(C)C)C(c2cccc(Cl)c2Cl)C(c2nnco2)=C(C)N1 (stereo not shown) [Example 2z2, Isopropyl 1,4-dihydro-2,6-dimethyl-4-(2,3-dichlorophenyl)-5-(1,3,4-oxadiazol-2-yl)pyridine-3-carboxylate] |
| 2 nM | CC1=C(c2nnco2)C(c2cccc([N+](=O)[O-])c2)C(c2nnco2)=C(C)N1 [Example 3a, 1,4-Dihydro-2,6-dimethyl-3,5-di(1,3,4-oxadiazol-2-yl)-4-(3-nitrophenyl)pyridine] |
| 1.8 nM | CCc1noc(C2=C(C)NC(C)=C(C(=O)OCCOC)C2c2cccc(Cl)c2Cl)n1 (stereo not shown) [Example 4b, 2-Methoxyethyl 1,4-dihydro-2,6-dimethyl-4-(2,3-dichlorophenyl)-5-(3-ethyl-1,2,4-oxadiazol-5-yl)pyridine-3-carboxylate] |
| 2.4 nM | CCc1noc(C2=C(C)NC(C)=C(C(=O)OC)C2c2cccc(Cl)c2Cl)n1 (stereo not shown) [Example 4c, Methyl 1,4-dihydro-2,6-dimethyl-4-(2,3-dichlorophenyl)-5-(3-ethyl-1,2,4-oxadiazol-5-yl)pyridine-3-carboxylate] |
| 1 nM | CCc1nnc(C2=C(C)NC(C)=C(C(=O)OCCOC)C2c2cccc([N+](=O)[O-])c2)o1 (stereo not shown) [Example 4k, 2-Methoxyethyl 1,4-dihydro-2,6-dimethyl-4-(3-nitrophenyl)-5-(2-ethyl-1,3,4-oxadiazol-5-yl)pyridine-3-carboxylate] |
| 1.5 nM | CCc1nnc(C2=C(C)NC(C)=C(C(=O)OCCOC)C2c2cccc(Cl)c2Cl)o1 (stereo not shown) [Example 4m, 2-Methoxyethyl 1,4-dihydro-2,6-dimethyl-4-(2,3-dichlorophenyl)-5-(2-ethyl-1,3,4-oxadiazol-5-yl)pyridine-3-carboxylate] |
| 1.6 nM | CCOC(=O)c1sc(C2=C(C)NC(C)=C(C(=O)OCCOC)C2c2cccc([N+](=O)[O-])c2)nc1C (stereo not shown) [Example 5b, 2-Methoxyethyl 1,4-dihydro-2,6-dimethyl-4-(3-nitrophenyl)-5-(4-methyl-5-ethoxycarbonyl-2-thiazolyl)pyridine-3-carboxylate] |

Same assay, conditions: guinea pig pulmonary artery strips, calcium-free Tyrode's solution, 40 mmol potassium, 0.5 mmol CaCl2; mean value from 4 to 6 strips; read-out: IC50 (concentration of the test substance which inhibits contraction by 50%)

| Molecule | IC50 |
| --- | --- |
| 2-Methylethyl 1,4-dihydro-2,6-dimethyl-4-(3-cyanophenyl)-5-(3-methyl-1,2,4-oxadiazol-5-yl)pyridine-3-carboxylate [Example 1t] | 1.5 nM |
